These results are taken from US20130039905A1 (Neurotec Pharma, S.L., priority 2010, published 2013).

For data set [1], the system named is EAE mice. Put plainly: EAE in mice, treatment after first clinical signs (post-treatment, Example 3). The format is in vivo. Conditions: for global mean decrease of the clinical score (Area Under the Curve vs placebo): post-treatment. On the procedure:
Experimental Autoimmune Encephalomyelitis induction and clinic scoring of mice were performed as described on Example 2.
The day scoring a value of 1, every mouse was randomly assigned to a diazoxide-treatment or placebo-control group. The period of treatment was 15 days and the drug was dissolved in a vehicle consisting in 98.5% water plus 1.5% of dimetyl sulfoxide (Sigma-Aldrich, St. Louis, Mo., USA) and was administered daily orally by gavage (p.o.), in a dose volume of 200 μl. […] One placebo-control group received a daily oral administration of vehicle.
The non-parametric Mann-Whitney-Wilcoxon test was performed to establish the differences between the treated groups and control group for each day. p<0.05 was considered as significant. To test the global effect of the treatment along all the study, the Area Under the Curve of treated groups and control group was compared using One-Way-Anova test. p<0.05 was considered as significant.

Data set [2] can be described thus: Glycemia in mice receiving daily oral diazoxide (Example 1). To be noted: 30 days, female C57BL/6J mice, blood glucose at time 0 and 60 minutes. The format is in vivo. As to the method: Female C57BL/6J mice, 11 weeks of age, were purchased from Charles River and maintained on a 12:12 hr light:dark cycle, with standard chow and water freely available. The experiments began at 11:00 h. […] From day 4 on, glucose blood levels were measured every 3-4 days during the 30-day treatment period. Measurements were performed immediately before drug administration (time 0) and at 60 minutes. Blood samples were obtained from the saphenous vein and glucose levels were determined using a glucometer and glucose test strips (Accu-Chek® Aviva, Roche Diagnostics, Indianapolis, Ind, USA). For each group, hyperglycemia was considered when glucose concentration was equal or higher than 176 mg/dl.

Data set [3] concerns bupivacaine-induced actute CNS toxicity. To be noted: 100 mg/kg (300 mg/m^2), mice; cited from earlier work.
Data set [4] concerns EAE mice. The data set can be described thus: EAE in mice, treatment starting at immunization (pre-treatment, Example 2). The format is in vivo. To be noted: for global mean decrease of the clinical score (Area Under the Curve vs placebo): pre-treatment.

“Also recorded” adds a separate entry of the source.

For `CC1=NS(=O)(=O)c2cc(Cl)ccc2N1` [Diazoxide], the “daily EAE clinical score compared to control group” value in data set [1] (0.05 mg/kg (0.15 mg/m^2) daily p.o. for 15 days from score 1) was “significant difference at the final phase of the study (day 15)”; in data set [1] (4 mg/kg (12 mg/m^2) daily p.o. for 15 days from score 1), “significant reduction in the clinical score at day four and at day five”; in data set [4] (0.025 mg/kg (0.075 mg/m^2) daily p.o. for 30 days from immunization), “significant difference at days fourteen, fifteen, eighteen and nineteen”. Moreover, the “global mean decrease of the clinical score (Area Under the Curve vs placebo)” value in data set [1] (0.05 mg/kg (0.15 mg/m^2) daily p.o.) is on record as 19%; in data set [1] (1 mg/kg (3 mg/m^2) daily p.o., p<0.05), 40%; in data set [1] (4 mg/kg (12 mg/m^2) daily p.o.), 15%; in data set [4] (0,8 mg/Kg (2.4 mg/m^2) daily p.o., p<0,01), 26%; in data set [4] (0,025 mg/Kg (0.075 mg/m^2) daily p.o., p<0.05) it was 26%. For the same compound, the “daily EAE clinical score compared to placebo-control group” value in data set [1] (0.8 mg/kg (2.4 mg/m^2) daily p.o. for 15 days from score 1, day six to day fifteen) is reported as “all clinical values were significantly lower; also recorded: significant reduction of the daily clinical score in ten consecutive days”; in data set [1] (1 lmg/kg (3 mg/m^2) daily p.o. for 15 days from score 1, day four to day fifteen) it was “significantly lower from day four”. The “morbidity and mean daily clinical score compared to placebo-control group” value in data set [1] (0.05, 0.8 and 1 mg/kg daily p.o. for 15 days from score 1) was “significant reduction of morbidity and of the mean daily clinical score”. The “hyperglycemia (glucose concentration equal or higher than 176 mg/dl)” value in data set [2] (0.05 mg/kg (0,15 mg/m^2) daily p.o.) and in data set [2] (1 mg/kg (3 mg/m^2) daily p.o.) was “none of the two doses tested in this study produced hyperglycemia” throughout. Moreover, the “period of latency of the convulsions caused by bupivacaine” value in data set [3] is given as “increasing the period of latency of the convulsions”. For the same compound, the “daily EAE clinical score compared to placebo control group” value in data set [4] (0.8 mg/kg (2.4 mg/m^2) daily p.o. for 30 days from immunization) is “significantly lower at day thirteen and from day twenty-five to thirty; also recorded: significant in seven non-consecutive days”. Besides, the “mean value for clinical score compared to control group after day 13 post-immunization” value in data set [4] (all dosages tested (0.025 and 0.8 mg/kg) daily p.o. from immunization) is “better mean value for clinical score”.
